Test results as given in patent US20230192617A1, “AZABICYCLIC(THIO)AMIDES AS FUNGICIDAL COMPOUNDS” (Bayer CropScience Aktiengesellschaft, priority 2020, published 2023).

Experiments:
[1] = system: Colletotrichum lindemuthianum; experiment: B-8. Colletotrichum lindemuthianum in vitro cell test; type: cell-based; conditions: 144 h, 20 ppm of active ingredient, 6 days incubation, liquid culture, absorbance, read-out: efficacy (inhibition of fungal growth)
Procedure: (§1) B-8. Colletotrichum lindemuthianum In Vitro Cell Test [table] Fungicides were solubilized in DMSO and the solution used to prepare the required range of concentrations. The final concentration of DMSO used in the assay was ≤1%. A spore suspension of C. lindemuthianum was prepared and diluted to the desired spore density. Fungicides were evaluated for their ability to inhibit spores germination and mycelium growth in liquid culture assay. The compounds were added in the desired concentration to the culture medium with spores. After 6 days incubation, fungi-toxicity of compounds was determined by spectrometric measurement of mycelium growth. Inhibition of fungal growth was determined by comparing the absorbance values in wells containing the fungicides with the absorbance in control wells without fungicides.

[2] = system: Alternaria alternata; experiment: Alternaria alternata in vitro cell test; type: cell-based; conditions: 120 h, 20 ppm of active ingredient, liquid culture, 5 days incubation, spectrometric measurement of mycelium growth, read-out: efficacy (inhibition of fungal growth)
Procedure: as §1, with “B-6. Alternaria alternata In” for “B-8. Colletotrichum lindemuthianum In”, “of A. alternata” for “of C. lindemuthianum”, “inhibit spore” for “inhibit spores”, “After 5” for “After 6”

[3] = system: Botrytis cinerea; experiment: In vivo preventive test on Botrytis cinerea (grey mould); conditions: 500 ppm of active ingredient, preventive spray on gherkin or cabbage, evaluated 4 to 5 days after inoculation, read-out: efficacy
Procedure: B-2. In Vivo Preventive Test on Botrytis cinerea (Grey Mould) [table] The active ingredients were made soluble and homogenized in a mixture of Dimethyl sulfoxide/Acetone/Tween® 80 and then diluted in water to the desired concentration. The young plants of gherkin or cabbage were treated by spraying the active ingredient prepared as described above. Control plants were treated only with an aqueous solution of Acetone/Dimethyl sulfoxide/Tween® 80. After 24 hours, the plants were contaminated by spraying the leaves with an aqueous suspension of Botrytis cinerea spores. The contaminated gherkin plants were incubated for 4 to 5 days at 17° C. and at 90% relative humidity. The contaminated cabbage plants were incubated for 4 to 5 days at 20° C. and at 100% relative humidity.

[4] = system: Alternaria brassicae; experiment: In vivo preventive test on Alternaria brassicae (leaf spot on radish or cabbage); conditions: 500 ppm of active ingredient, preventive spray on radish or cabbage, evaluated 3 to 4 days after inoculation, read-out: efficacy
Procedure: B-1. In Vivo Preventive Test on Alternaria brassicae (Leaf Spot on Radish or Cabbage) [table] The active ingredients were made soluble and homogenized in a mixture of Dimethyl sulfoxide/Acetone/Tween® 80 and then diluted in water to the desired concentration. The young plants of radish or cabbage were treated by spraying the active ingredient prepared as described above. Control plants were treated only with an aqueous solution of Acetone/Dimethyl sulfoxide/Tween® 80. After 24 hours, the plants were contaminated by spraying the leaves with an aqueous suspension of Alternaria brassicae spores. The contaminated radish or cabbage plants were incubated for 3 to 4 days at 20° C. and at 100% relative humidity.

[5] = Measurement of Log P values by HPLC on reversed phase columns (EEC directive 79/831 Annex V.A8); type: physicochemical; conditions: reversed phase HPLC column, method [a]: LC-UV, acidic range, 0.1% formic acid in water and acetonitrile as eluent
Procedure: A-1.1. Measurement of Log P Values
Measurement of Log P values as provided herein was performed according to EEC directive 79/831 Annex V.A8 by HPLC (High Performance Liquid Chromatography) on reversed phase columns with the following methods:
^[a] Log P value is determined by measurement of LC-UV, in an acidic range, with 0.1% formic acid in water and acetonitrile as eluent (linear gradient from 10% acetonitrile to 95% acetonitrile).
^[b] Log P value is determined by measurement of LC-UV, in a neutral range, with 0.001 molar ammonium acetate solution in water and acetonitrile as eluent (linear gradient from 10% acetonitrile to 95% acetonitrile).
^[c] Log P value is determined by measurement of LC-UV, in an acidic range, with 0.1% phosphoric acid and acetonitrile as eluent (linear gradient from 10% acetonitrile to 95% acetonitrile).
If more than one Log P value is available within the same method, all the values are given and separated by “+”. […]

[6] = system: Pyrenophora teres; experiment: B-10. Pyrenophora teres in vitro cell test; type: cell-based; conditions: 144 h, 20 ppm of active ingredient, 6 days incubation, liquid culture, absorbance, read-out: efficacy (inhibition of fungal growth)
Procedure: as §1, with “B-10. Pyrenophora teres In” for “B-8. Colletotrichum lindemuthianum In”, “of P. teres” for “of C. lindemuthianum”, “inhibit spore” for “inhibit spores”

[7] = system: Botrytis cinerea; experiment: B-11. Botrytis cinerea in vitro cell test; type: cell-based; conditions: 144 h, 20 ppm of active ingredient, 6 days incubation, liquid culture, absorbance, read-out: efficacy (inhibition of fungal growth)
Procedure: as §1, with “B-11. Botrytis cinerea In” for “B-8. Colletotrichum lindemuthianum In”, “of B. cinerea” for “of C. lindemuthianum”, “inhibit spore” for “inhibit spores”

Row | SMILES | inhibition at 20 ppm [1] | inhibition at 20 ppm [2] | pest or weed control at 500 ppm [3] | pest or weed control at 500 ppm [4] | chromatographic logP [5] | inhibition at 20 ppm [6] | inhibition at 20 ppm [7]
1 | C[C@H](NC(=O)c1c(Oc2cccc(Cl)c2)nnc2ccccc12)c1cccc(C(F)(F)F)c1 (racemic) [I-016] | 80 to 89% | 80 to 89% | 90 to 100% | 90 to 100% | 3.9 |  | 
2 | C[C@H](NC(=O)c1c(Oc2cccc(C(F)(F)F)c2)nnc2ccccc12)c1cccc(C(F)(F)F)c1 (racemic) [I-022] | 70 to 79% | 80 to 89% | 90 to 100% |  | 4.03 |  | 
3 | N#Cc1cccc(Oc2nnc3ccccc3c2C(=O)NC[C@H](F)c2ccc(Br)cc2Cl)c1 (racemic) [I-031] | 90 to 100% | 90 to 100% | 90 to 100% | 90 to 100% | 3.65 |  | 
4 | O=C(N[C@H]1CCCc2cc(Cl)sc21)c1c(Oc2cccc(C(F)(F)F)c2)cnc2ccccc12 (racemic) [I-040] | 90 to 100% | 90 to 100% | 80 to 89% |  | 4.54 |  | 
5 | O=C(NC[C@@H](F)c1ccc(Cl)c(Cl)c1)c1c(Oc2cccc(Cl)c2)nnc2ccccc12 (racemic) [I-051] | 90 to 100% | 90 to 100% |  | 70 to 79% | 4.23 |  | 
6 | O=C(N[C@H]1CCOc2ccc(F)cc21)c1c(Oc2cccc(C(F)(F)F)c2)nnc2ccccc12 (racemic) [I-165] |  |  |  |  | 3.69 | 90 to 100% | 
7 | Cc1ccc2c(C(=O)N[C@H]3CCCc4cc(Br)ccc43)c(Oc3cccc(C(F)(F)F)c3)nnc2c1 (racemic) [I-181] |  | 80 to 89% |  |  | 4.88 |  | 
8 | Cc1ccc(C(F)(F)F)cc1Oc1nnc2ccccc2c1C(=O)NC[C@H](F)c1ccc(Cl)cc1Cl (racemic) [I-183] |  |  |  |  | 4.74 | 70 to 79% | 
9 | O=C(N/C=C\c1ccccc1)c1c(Oc2cccc(C(F)(F)F)c2)cnc2ccccc12 [I-001] |  | 70 to 79% | 90 to 100% |  | 4.17 |  | 
10 | Cc1ccc(CCNC(=O)c2c(Oc3cccc(C(F)(F)F)c3)nnc3c(C)cccc23)c(C)c1 [I-005] | 80 to 89% | 90 to 100% | 90 to 100% |  | 4.69 |  | 
11 | Cc1ccc(CCNC(=O)c2c(Oc3cccc(C(F)(F)F)c3)nnc3cc(F)ccc23)c(C)c1 [I-007] | 90 to 100% | 90 to 100% | 90 to 100% |  | 4.4 |  | 
12 | COc1ccc2c(C(=O)NCCc3ccc(C)cc3C)c(Oc3cccc(C(F)(F)F)c3)nnc2c1 [I-009] |  | 90 to 100% |  |  | 4.3 |  | 
13 | Cc1ccc(CCNC(=O)c2c(Oc3cccc(C(F)(F)F)c3)nnc3cnccc23)c(C)c1 [I-011] |  | 90 to 100% | 90 to 100% | 80 to 89% | 3.88 |  | 
14 | O=C(NCC(F)(F)c1ccc(Br)cc1Cl)c1c(Oc2cccc(Cl)c2)nnc2ccccc12 [I-013] | 90 to 100% | 90 to 100% | 90 to 100% | 90 to 100% | 4.46 |  | 
15 | O=C(NCC(F)(F)c1ccc(Cl)cc1)c1c(Oc2ccc(Cl)cc2)nnc2ccccc12 [I-018] |  | 80 to 89% | 90 to 100% |  | 3.96 |  | 
16 | O=C(NCC(F)(F)c1ccc(Br)cc1Cl)c1c(Oc2ccc(Cl)cc2)nnc2ccccc12 [I-019] |  | 80 to 89% | 90 to 100% | 70 to 79% | 4.46 |  | 
17 | Cc1ccc(C(F)(F)CNC(=O)c2c(Oc3cccc(C#N)c3)nnc3ccccc23)c(C)c1 [I-030] | 90 to 100% | 90 to 100% | 90 to 100% |  | 3.58 |  | 
18 | N#Cc1cccc(Oc2nnc3ccccc3c2C(=O)NCC(F)(F)c2ccc(Br)cc2Cl)c1 [I-032] | 90 to 100% | 90 to 100% | 90 to 100% |  | 3.77 |  | 
19 | O=C(NCC(F)(F)c1ccc(Cl)cn1)c1c(Oc2cccc(C(F)F)c2)nnc2ccccc12 [I-036] | 90 to 100% | 90 to 100% | 90 to 100% | 90 to 100% | 3.2 |  | 
20 | O=C(NCC(F)(F)c1ccc(Cl)cc1)c1c(Oc2cccc(C(F)(F)F)c2)cnc2ccccc12 [I-037] | 90 to 100% |  | 80 to 89% |  | 4.23 |  | 90 to 100%
21 | Cc1ccc2c(C(=O)NCC(F)(F)c3ccc(Br)cc3Cl)c(Oc3cccc(C(F)(F)F)c3)nnc2c1 [I-045] | 90 to 100% | 90 to 100% | 90 to 100% | 90 to 100% | 4.64 |  | 
22 | N#Cc1ccc(CONC(=O)c2c(Oc3cccc(C(F)(F)F)c3)nnc3ccccc23)cc1 [I-088] | 90 to 100% |  |  |  | 3.07 |  | 90 to 100%
23 | Cc1ccc(C(F)(F)CNC(=S)c2c(Oc3cccc(Cl)c3)nnc3ccccc23)c(C)c1 [I-158, 3-(3-chlorophenoxy)-N-[2-(2,4-dimethylphenyl)-2,2-difluoro-ethyl]cinnoline-4-carbothioamide] | 90 to 100% | 90 to 100% |  | 90 to 100% | 5.01 |  | 
24 | N#Cc1cccc(Oc2nnc3ccccc3c2C(=O)NCC(F)(F)c2ccc(Cl)cc2)c1 [I-160] | 90 to 100% | 90 to 100% |  | 80 to 89% | 3.33 |  | 
25 | CC(C)CON(Cc1ccccc1)C(=O)c1c(Oc2cccc(C(F)(F)F)c2)nnc2ccccc12 [I-170] | 70 to 79% |  |  |  | 4.86 |  | 90 to 100%
26 | COc1cc(OC)nc(Oc2cnc3ccccc3c2C(=O)NCC(F)(F)c2ccc(C)cc2C)n1 [I-187] |  | 70 to 79% |  |  | 3.74 | 90 to 100% | 
27 | O=C(NCCc1cnc(C(F)(F)F)nc1)c1c(Oc2cccc(C(F)(F)F)c2)nnc2ccccc12 [I-195] |  |  |  |  | 3.22 | 90 to 100% | 
